Measured values taken from ChEMBL document CHEMBL1128630, “Alkoxy substituted benzisothiazolone (BIT) derivatives: potent inhibitors of human leukocyte elastase” (Bioorg Med Chem Lett, 1995).

Experiment: Half life measured in vitro for its stability in human blood
Format: ADME, tissue-based

half-life | SMILES
30 min | COc1cc(OC)c2c(c1)S(=O)(=O)N(COC(=O)c1c(Cl)cccc1Cl)C2=O
5 min | COc1ccc2c(c1)S(=O)(=O)N(COC(=O)c1c(Cl)cccc1Cl)C2=O
10 min | CCOc1cccc2c1C(=O)N(COC(=O)c1c(Cl)cccc1Cl)S2(=O)=O
98 min | CCOc1cc(OCC)c2c(c1)S(=O)(=O)N(COC(=O)c1c(Cl)cccc1Cl)C2=O
